From patent publication US20220281846A1, “COMPOUNDS AND COMPOSITIONS FOR THE TREATMENT OF RESPIRATORY DISEASES” (THE UNIVERSITY OF MELBOURNE, priority 2018, published 2022)

Key:
[1] = In vitro metabolic stability, human liver microsomes; format: in vitro ADME; conditions: for Predicted CLblood: well stirred model
Method: Human Microsomal Stability of Compounds of the Invention
In Vitro Metabolic Stability
Incubation: The metabolic stability assay was performed by incubating each test compound in human liver microsomes at 37° C. and a protein concentration of 0.4 mg/mL. The metabolic reaction was initiated by the addition of an NADPH-regenerating system and quenched at various time points over a 60 minute incubation period by the addition of acetonitrile containing diazepam as internal standard. Control samples (containing no NADPH) were included (and quenched at 2, 30 and 60 minutes) to monitor for potential degradation in the absence of cofactor. The human liver microsomes used in this experiment were supplied by XenoTech, lot #1410230. Microsomal incubations were performed at a substrate concentration of 1 μM. Data analysis: Species scaling factors from Ring et al. (2011) JPharmSci, 100:4090-4110 were used to convert the in vitro CLint (μL/min/mg) to an in vivo CLint(mL/min/kg). Hepatic blood clearance and the corresponding hepatic extraction ratio (EH) were calculated using the well stirred model of hepatic extraction in each species, according to the “in vitro T1/2” approach described in Obach (1999) DrugMetab. Dispos. 27:1350-1359. The EH was then used to classify compounds as low(<0.3), intermediate (0.3-0.7), high (0.7-0.95) or very high (>0.95) extraction compounds. Predicted in vivo clearance values have not been corrected for microsomal or plasma protein binding. Species scaling calculations are based on two assumptions: 1) NADPH-dependent oxidative metabolism predominates over other metabolic routes (i.e. direct conjugative metabolism, reduction, hydrolysis, etc.), and; 2) rates of metabolism and enzyme activities in vitro are truly reflective of those that exist in vivo. If significant non-NADPH-mediated degradation is observed in microsome control samples, then assumption (1) is invalid and predicted clearance parameters are therefore not reported.

[2] = In vivo determination of whole blood-to-plasma ratio; set-up: species or system male C57BL/6 mice; conditions: mouse blood, 15 min and 1 h post-dose
Method: Blood was collected from mice at 15 min and 1 h post-dose of each compound for the purposes of determining the whole blood-to-plasma (B/P) ratio. […] No adverse reactions or compound-related side effects observed in any mice during the 24 h sampling period after dosing any of the compounds. Plasma samples were also taken from 2 mice that were not administered test compound for use as analytical tool.
Analysis of B/P partitioning samples was conducted similarly and quantified against calibration standards samples prepared using a 1:1 v/v mixture of blank mouse blood and plasma. The matrix matched B/P partitioning samples and standards were processed using protein precipitation with acetonitrile as described above.
In Vivo Determination of Whole Blood-to-Plasma Ration
Blood was collected via cardiac puncture (whilst under gaseous isoflurane anaesthesia) into tubes containing heparin and stabilisation cocktail. The haematocrit was determined via centrifugation (13000×g for 4 min using a Clemets® Microhematocrit centrifuge and Safecap® Plain Self-sealing Mylar Wrapped capillary tubes), and values ranged from 38% to 40% for PF670462 and 38% to 44% for ZH3-138. […]
The B/P ratio was obtained by dividing the average measured concentration in blood by the average concentration measured in plasma following centrifugation of whole blood.

[3] = human liver microsomes, 1 μM, 0.4 mg/mL protein, 37° C.
[4] = scaled from human liver microsomes

SMILES	Predicted EH (hepatic extraction ratio) ([1]; human liver microsomes)	CLint, in vitro ([1]; human liver microsomes, 1 μM) [μL/min/mg protein]	T1/2 [1, 3] [min]	Predicted CLint, in vivo [1, 4] [mL/min/kg]	Predicted CLblood [1, 4] [mL/min/kg]	apparent whole blood-to-plasma ratio (B/P) [2]	microsomal CLint at 1 μM ([1]; human liver microsomes, 1 μM) [µL/min/mg]	half-life at 1 μM [1, 3] [h]	CLint scaled at 1 μM ([1]; scaled from human liver microsomes, read-out: Predicted CLint, in vivo) [mL/min/kg]	blood plasma ratio ([2]; male, C57BL/6, whole blood and plasma, read-out: apparent whole blood-to-plasma ratio (B/P))
Nc1nccc(-c2c(-c3ccc(F)cc3)ncn2C2CCCCC2)n1 [PF670462, reference compound]	0.88	192	9	158	18	1.0	–	–	–	–
Nc1nccc(-c2c(-c3ccc(F)cc3)ncn2C2CCC(F)(F)CC2)n1 [ZH3-138, 4-(1-(4,4-Difluorocyclohexyl)-4-(4-fluorophenyl)-1H-imidazol-5-yl)pyrimidin-2-amine]	<0.22	–	–	–	<5	–	< 7	> 4.25	< 6	0.91
